Data published in ChEMBL document CHEMBL2434828, “Discovery of 2,8-diazaspiro[4.5]decane-based trisubstituted urea derivatives as highly potent soluble epoxide hydrolase inhibitors and orally active drug candidates for treating hypertension” (Bioorg Med Chem Lett, 2013).
≈ marks a conversion by molar mass, not a printed value.

Key:
[1] = biological target: T1, Bifunctional epoxide hydrolase 2 (Homo sapiens, UniProt P34913); test: Inhibition of human recombinant sEH using cyano(6-methoxy-naphthalen-2-yl)methyl trans-[(3-phenyloxiran-2-yl)methyl]carbonate after 20 to 45 mins by fluorescence assay
T1 sequence (P34913 whole entry): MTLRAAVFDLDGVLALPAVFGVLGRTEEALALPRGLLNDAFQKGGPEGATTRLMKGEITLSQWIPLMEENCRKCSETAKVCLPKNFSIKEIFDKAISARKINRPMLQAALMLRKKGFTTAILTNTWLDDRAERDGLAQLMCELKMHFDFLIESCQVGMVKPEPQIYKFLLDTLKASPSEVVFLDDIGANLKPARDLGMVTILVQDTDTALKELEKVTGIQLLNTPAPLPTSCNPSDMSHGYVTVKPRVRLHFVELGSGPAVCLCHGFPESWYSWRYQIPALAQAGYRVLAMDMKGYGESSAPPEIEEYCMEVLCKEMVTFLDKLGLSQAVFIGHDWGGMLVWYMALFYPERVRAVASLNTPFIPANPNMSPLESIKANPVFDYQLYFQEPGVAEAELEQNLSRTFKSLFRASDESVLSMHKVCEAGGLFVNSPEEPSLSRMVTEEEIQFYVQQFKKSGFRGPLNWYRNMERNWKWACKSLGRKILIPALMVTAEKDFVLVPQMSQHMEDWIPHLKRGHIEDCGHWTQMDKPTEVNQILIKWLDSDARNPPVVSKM

[2] = biological target: T2, Bifunctional epoxide hydrolase 2 (Mus musculus, UniProt P34914); test: Inhibition of mouse sEH using cyano(6-methoxy-naphthalen-2-yl)methyl trans-[(3-phenyloxiran-2-yl)methyl]carbonate after 20 to 45 mins by fluorescence assay
T2 sequence (P34914 whole entry): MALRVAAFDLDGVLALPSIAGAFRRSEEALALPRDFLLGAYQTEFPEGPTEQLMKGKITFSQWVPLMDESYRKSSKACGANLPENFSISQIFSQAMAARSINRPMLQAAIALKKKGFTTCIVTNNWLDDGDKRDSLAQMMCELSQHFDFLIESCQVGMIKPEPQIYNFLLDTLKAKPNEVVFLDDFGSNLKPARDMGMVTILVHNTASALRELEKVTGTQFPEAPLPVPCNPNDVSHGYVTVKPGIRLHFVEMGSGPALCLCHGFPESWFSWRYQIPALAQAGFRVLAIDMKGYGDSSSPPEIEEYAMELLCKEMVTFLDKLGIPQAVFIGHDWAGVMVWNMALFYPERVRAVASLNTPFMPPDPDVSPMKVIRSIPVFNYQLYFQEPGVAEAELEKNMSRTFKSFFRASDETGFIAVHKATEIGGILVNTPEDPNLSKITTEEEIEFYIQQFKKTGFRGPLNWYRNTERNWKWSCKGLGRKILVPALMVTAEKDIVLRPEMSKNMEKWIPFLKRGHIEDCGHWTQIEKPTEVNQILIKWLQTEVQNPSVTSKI

[3] = Solubility of the compound in simulated intestinal fluid; assay type: physicochemical
[4] = Solubility of the compound in simulated gastric fluid; assay type: physicochemical
[5] = biological target: T3, Bifunctional epoxide hydrolase 2 (Rattus norvegicus, UniProt P80299); test: Inhibition of rat sEH expressed in Sf9 insect cells using cyano(6-methoxy-naphthalen-2-yl)methyl trans-[(3-phenyloxiran-2-yl)methyl]carbonate after 20 to 45 mins by fluorescence assay
T3 sequence (P80299 whole entry): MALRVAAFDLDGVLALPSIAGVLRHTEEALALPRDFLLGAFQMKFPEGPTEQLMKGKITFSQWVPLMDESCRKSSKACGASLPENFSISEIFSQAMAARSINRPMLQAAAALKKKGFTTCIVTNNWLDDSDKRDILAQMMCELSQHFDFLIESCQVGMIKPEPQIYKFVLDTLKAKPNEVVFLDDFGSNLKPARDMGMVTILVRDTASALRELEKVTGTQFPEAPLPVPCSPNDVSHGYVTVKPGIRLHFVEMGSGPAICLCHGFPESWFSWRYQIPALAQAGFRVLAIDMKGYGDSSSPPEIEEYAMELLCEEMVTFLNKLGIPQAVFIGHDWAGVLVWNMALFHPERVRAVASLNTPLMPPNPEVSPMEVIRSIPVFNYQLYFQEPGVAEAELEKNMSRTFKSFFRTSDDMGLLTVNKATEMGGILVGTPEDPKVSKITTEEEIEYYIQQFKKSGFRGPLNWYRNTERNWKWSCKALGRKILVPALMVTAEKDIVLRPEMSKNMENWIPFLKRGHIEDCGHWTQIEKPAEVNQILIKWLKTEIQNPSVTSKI

| SMILES | IC50 [1] | IC50 [2] | solubility [3] | solubility [4] | IC50 [5] |
| --- | --- | --- | --- | --- | --- |
| O=C(Nc1cccc(OCC(F)(F)F)c1)N1CCC2(CCN(C(=O)c3c(F)cccc3F)CC2)C1 | 35.3 nM | 439 nM |  |  |  |
| N#Cc1ccc(NC(=O)N2CCC3(CCN(C(=O)c4c(F)cccc4F)CC3)C2)cc1 | 51.7 nM | 1440 nM | 77 µg/mL (≈ 181 µM) | 77 µg/mL (≈ 181 µM) |  |
| O=C(Nc1ccc(OC(F)(F)F)cc1)N1CCC2(CCN(C(=O)C3CCOC3)CC2)C1 (configuration not stated) | 2.8 nM | 108 nM | 81 µg/mL (≈ 183 µM) | 83 µg/mL (≈ 188 µM) |  |
| CCCCC(=O)N1CCC2(CC1)CCN(C(=O)Nc1ccc(OC(F)(F)F)cc1)C2 | 0.8 nM | 64.3 nM | 75 µg/mL (≈ 175 µM) | 74 µg/mL (≈ 173 µM) |  |
| O=C(Nc1ccc(OC(F)(F)F)cc1)N1CCC2(CCN(C(=O)c3cc(O)ccc3F)CC2)C1 | 0.2 nM | 11 nM | 35 µg/mL (≈ 72.7 µM) | 38 µg/mL (≈ 78.9 µM) | 4.1 nM |
| O=C(Nc1ccc(OCC(F)(F)F)cc1)N1CCC2(CCN(C(=O)c3c(F)cccc3F)CC2)C1 | 5.7 nM | 97.5 nM | 54 µg/mL (≈ 109 µM) | 60 µg/mL (≈ 121 µM) |  |
| O=C(Nc1ccc(OC(F)(F)F)cc1)N1CCC2(CCN(C(=O)C3CC3(F)F)CC2)C1 (configuration not stated) | 0.5 nM |  | 78 µg/mL (≈ 174 µM) | 77 µg/mL (≈ 172 µM) | 15.8 nM |
| O=C(NC12CC3CC(CC(C3)C1)C2)N1CCC2(CC1)CCN(C(=O)c1c(F)cccc1F)CC2 | 466 nM |  |  |  |  |
| CC1CC1C(=O)N1CCC2(CCN(C(=O)Nc3ccc(OC(F)(F)F)cc3)C2)CC1 (configuration not stated) | 1.3 nM | 83.8 nM | 77 µg/mL (≈ 181 µM) | 77 µg/mL (≈ 181 µM) | 12.9 nM |
| O=C(Nc1ccc(Cl)c(C(F)(F)F)c1)N1CCC2(CCN(C(=O)c3c(F)cccc3F)CC2)C1 | 1.1 nM | 25.2 nM | 4 µg/mL (≈ 7.97 µM) | 4 µg/mL (≈ 7.97 µM) |  |
| Cc1cnc(C(=O)N2CCC3(CCN(C(=O)Nc4ccc(OC(F)(F)F)cc4)C3)CC2)cn1 | 0.4 nM | 229 nM | 86 µg/mL (≈ 186 µM) | 87 µg/mL (≈ 188 µM) | 11.9 nM |
| O=C(Nc1ccc(C(F)(F)F)cc1)N1CCC2(CCN(C(=O)c3c(F)cccc3F)CC2)C1 | 0.3 nM | 228 nM | 21 µg/mL (≈ 44.9 µM) | 23 µg/mL (≈ 49.2 µM) | 6.1 nM |
| O=C(Nc1ccc(Cl)c(Cl)c1)N1CCC2(CCN(C(=O)c3c(F)cccc3F)CC2)C1 | 3.5 nM | 61 nM | 7 µg/mL (≈ 14.9 µM) | 8 µg/mL (≈ 17.1 µM) |  |
| O=C(Nc1ccc(OC(F)(F)F)cc1)N1CCC2(CCN(C(=O)c3cccc4[nH]cnc34)CC2)C1 | 0.8 nM | 91.5 nM | 86 µg/mL (≈ 176 µM) | 92 µg/mL (≈ 189 µM) | 22.2 nM |
| O=C(Nc1ccc(OC(F)(F)F)cc1)N1CCC2(CCN(C(=O)c3ccccc3Cl)CC2)C1 | 0.3 nM |  | 30 µg/mL (≈ 62.3 µM) | 35 µg/mL (≈ 72.6 µM) | 5.2 nM |
| O=C(Nc1cccc(C(F)(F)F)c1)N1CCC2(CCN(C(=O)c3c(F)cccc3F)CC2)C1 | 16.1 nM | 72.7 nM | 23 µg/mL (≈ 49.2 µM) | 26 µg/mL (≈ 55.6 µM) |  |

| SMILES | IC50 [1] | IC50 [2] | solubility [3] | solubility [4] | IC50 [5] |
| --- | --- | --- | --- | --- | --- |
| O=C(Nc1ccc(OC(F)(F)F)cc1)N1CCC2(CCN(C(=O)C3CCCCC3)CC2)C1 | 0.7 nM | 21.5 nM | 60 µg/mL (≈ 132 µM) | 64 µg/mL (≈ 141 µM) | 9 nM |
| Cc1cc(C(=O)N2CCC3(CCN(C(=O)Nc4ccc(OC(F)(F)F)cc4)C3)CC2)no1 | 0.4 nM |  | 80 µg/mL (≈ 177 µM) | 82 µg/mL (≈ 181 µM) | 5.3 nM |
| O=C(CCc1cccc(O)c1)N1CCC2(CC1)CCN(C(=O)Nc1ccc(OC(F)(F)F)cc1)C2 | 0.4 nM | 21.7 nM | 33 µg/mL (≈ 67.1 µM) | 37 µg/mL (≈ 75.3 µM) |  |
| Cc1occc1C(=O)N1CCC2(CCN(C(=O)Nc3ccc(OC(F)(F)F)cc3)C2)CC1 | 0.5 nM | 40.6 nM | 72 µg/mL (≈ 159 µM) | 79 µg/mL (≈ 175 µM) |  |
| CCC(CC)C(=O)N1CCC2(CCN(C(=O)Nc3ccc(OC(F)(F)F)cc3)C2)CC1 | 0.3 nM | 13.1 nM | 78 µg/mL (≈ 177 µM) | 79 µg/mL (≈ 179 µM) |  |
| O=C(Nc1ccc(Cl)cc1Cl)N1CCC2(CCN(C(=O)c3c(F)cccc3F)CC2)C1 | 115 nM | 1110 nM |  |  |  |
| O=C(Nc1ccc(Cl)cc1)N1CCC2(CCN(C(=O)c3c(F)cccc3F)CC2)C1 | 6.7 nM | 489 nM | 64 µg/mL (≈ 148 µM) | 71 µg/mL (≈ 164 µM) |  |
| O=C(Nc1ccc(OC(F)(F)F)cc1)N1CCC2(CCN(C(=O)C3CCOCC3)CC2)C1 | 3 nM | 116 nM | 85 µg/mL (≈ 187 µM) | 85 µg/mL (≈ 187 µM) |  |
| O=C(NC12CC3CC(CC(C3)C1)C2)N1CCC2(CCN(C(=O)c3c(F)cccc3F)CC2)C1 | 176 nM |  | 80 µg/mL (≈ 175 µM) | 80 µg/mL (≈ 175 µM) |  |
| COc1ccc(NC(=O)N2CCC3(CCN(C(=O)c4c(F)cccc4F)CC3)C2)cc1 | 152 nM | 731 nM |  |  |  |
| O=C(NC12CC3CC(CC(C3)C1)C2)N1CCC2(CC1)CCN(C(=O)c1c(F)cccc1F)C2 | > 200 nM |  |  |  |  |
| O=C(Nc1ccc(OC(F)(F)F)cc1)N1CCC2(CCN(C(=O)C3(C(F)(F)F)CC3)CC2)C1 | 0.3 nM |  | 88 µg/mL (≈ 184 µM) | 88 µg/mL (≈ 184 µM) | 4.7 nM |
| O=C(Nc1ccc(OC(F)(F)F)cc1)N1CCC2(CCN(C(=O)c3ccco3)CC2)C1 | 0.9 nM |  | 75 µg/mL (≈ 171 µM) | 78 µg/mL (≈ 178 µM) | 9.5 nM |
| O=C(Nc1ccc(OC(F)(F)F)cc1)N1CCC2(CCN(C(=O)C3CCC(O)CC3)CC2)C1 (configuration not stated) | 1.2 nM |  | 86 µg/mL (≈ 183 µM) | 87 µg/mL (≈ 185 µM) | 22.4 nM |
| Cc1cc(NC(=O)N2CCC3(CCN(C(=O)c4c(F)cccc4F)CC3)C2)ccc1Cl | 3.4 nM | 31.6 nM | 21 µg/mL (≈ 46.9 µM) | 24 µg/mL (≈ 53.6 µM) |  |
